Experimental data reported in patent US10617622B2, “Hair restoration and/or hair growth promoting composition containing soyasaponin” (AMOREPACIFIC CORPORATION, priority 2015, dated 2020).

Experiments:
[1] = test system: dermal papilla cells (DPC); experiment: Expression of hair growth factor VEGF in dermal papilla cells (VEGF ELISA); format: cell-based, human; settings: 20 ppm, 24 hours
Method: In order to evaluate the degree of expression of vascular endothelial growth factor (VEGF) which is a growth factor necessary for transition of hair into the anagen phase as a growth factor necessary for angiogenesis by soyasaponin Aa, an in vitro system was applied to treat the soyasaponin Aa, and the activity thereof was evaluated. For the experiment, 4×10^5 dermal papilla cells (DPC) (P.11) of a person was seeded in a 12-well plate and cultured in DMEM (Dulbecco's modified Eagle's medium; GibcoBRL, Gaithersburg, Md., USA) containing 10% FBS (fetal bovine serum) overnight. After the culture, the cells were treated with soyasaponin Aa at 20 ppm. DMSO was used as a negative control. After 24 hours, the mixing solution with treated soyasaponin Aa was collected, and the degree of VEGF expression by the soyasaponin Aa was confirmed using VEGF ELISA (Vascular endothelial growth factor Enzyme-Linked Immunosorbent Assay; R&D biosystems).

[2] = test system: human dermal papilla cell line; experiment: Proliferation effect on hair follicle dermal papilla cells (WST-1 kit); format: cell-based; settings: for hDPc proliferation (%): 24 hours after treatment, control = 100
Method: First, in the present invention, a human dermal papilla cell line was used (obtained from Prof. Kwan Oh Sang of dermatology in Seoul National University Hospital). The cell line was cultured for 24 hours in an incubator maintained at 5% CO2, 37° C. using DMEM (Dulbecco's modified Eagle's medium; Gibco BRL, Gaithersburg, Md., USA) containing 10% FBS, and then independently treated with soyasaponin Aa at 1 ppm, 10 ppm, and 20 ppm. DMSO was used as a negative control. Cell proliferation (%) was measured using a WST-1 kit (Roche) 24 hours after the treatment with the test materials.

[3] = test system: human hair follicle organ; experiment: Hair growth promoting effect using human hair follicle organ culture; format: cell-based; settings: for Average growth length (mm): 8 days after the treatment, hair follicles of a person
Method: The hair follicle organ was isolated from the scalp tissue of the occipital region of a person one at a time, and cultured in William's E medium (containing L-glutamine (2 mM), insulin (10 μg/ml), hydrocortisone (40 ng/ml), antibiotics (1%) antimycotic (1%)).
The hair follicles grown on the third day after culturing were selected and cut into 3 mm. As for the selected hair follicle tissues, those without drug treatment were used as a control group, and the hair follicle tissues were each treated with soyasaponin Aa at 1 ppm, 5 ppm, and 10 ppm. Then, the hair length was measured 8 days after the treatment.

CC(=O)O[C@@H]1[C@@H](OC(C)=O)[C@H](O[C@@H]2[C@@H](O)[C@H](O[C@@H]3[C@H](O)C(C)(C)C[C@H]4C5=CC[C@@H]6[C@@]7(C)CC[C@H](O[C@@H]8O[C@H](C(=O)O)[C@@H](O)[C@H](O)[C@H]8O[C@@H]8O[C@H](CO)[C@H](O)[C@H](O)[C@H]8O[C@@H]8O[C@H](CO)[C@@H](O)[C@H](O)[C@H]8O)[C@](C)(CO)[C@@H]7CC[C@@]6(C)[C@]5(C)CC[C@@]34C)OC[C@@H]2O)OC[C@H]1OC(C)=O [Soyasaponin Aa, soyasaponin Aa]
increase of VEGF expression compared to the control group ([1]; dermal papilla cells): ≥ 4 times | VEGF (ng/ml) in culture medium ([1]; dermal papilla cells of a person, DMSO negative control): 16.7 ng/mL | hDPc proliferation (%) ([2]; 1 ppm): 119% | hDPc proliferation (%) ([2]; 10 ppm): 145% | rate of increase in dermal papilla cell proliferation compared with the control group ([2]; 20 ppm): ≥ 1.7 times | hDPc proliferation (%) ([2]; 20 ppm): 172% | Average growth length (mm) ([3]; 1 ppm): 1.71 mm | Average growth length (mm) ([3]; 5 ppm): 2.05 mm | hair length growth effect compared to the control group ([3]; 10 ppm): 1.5 times | Average growth length (mm) ([3]; 10 ppm): 2.46 mm
